Patent US20240016938A1, “METHODS FOR INCREASING THE BIOAVAILABILITY OF NUCLEOSIDE MEDICINAL AGENTS” (ZOGENIX MDS, INC., priority 2022, published 2024)
Where two headings read alike, the source gives them in different places.

Test: Phase 1 open-label, fixed-sequence, single-ascending dose and food-effect PK study of MT1621 in adult healthy subjects
Assay type: in vivo, human
Settings: for half-life: read-out: t½ (converted)
Method: A phase 1 study was conducted as an open-label, fixed-sequence, single-ascending dose study in adult healthy subjects designed to evaluate the safety, tolerability, PK, and food-effect of MT1621 (dC and dT). To evaluate the PK of MT1621, the combination was administered at three different doses. Treatment A was a 43.3 mg/kg dose of MT1621 (i.e., a 43.3 mg/kg dose of dC and a 43.3 mg/kg dose of dT (each approximately equivalent to 1 dose of a 130 mg/kg daily dose, divided 3 times daily [TID])) in healthy male and female subjects under fasting conditions; Treatment B was an 86.7 mg/kg dose of MT1621 (i.e., a 86.7 mg/kg dose of dC and a 86.7 mg/kg dose of dT (each approximately equivalent to 1 dose of a 260 mg/kg daily dose, divided TID)) in healthy male and female subjects under fasting conditions; and Treatment C was a 133.3 mg/kg dose of MT1621 (i.e., a 133.3 mg/kg dose of dC and a 133.3 mg/kg dose of dT (each approximately equivalent to a 400 mg/kg daily dose, divided TID)) in healthy male and female subjects under fasting conditions. Additionally, Treatment D was a 133.3 mg/kg dose of MT1621 (i.e., a 133.3 mg/kg dose of dC and a 133.3 mg/kg dose of dT (each approximately equivalent to a 400 mg/kg daily dose, divided TID) in healthy male and female subjects under fed conditions, to determine the effect of a high-fat meal on the single-dose PK of MT1621.
Methodology of open-label, Phase 1, fixed-sequence, single-dose, dose escalation, and food-effect study. Fourteen (14) healthy, adult, male and female subjects were enrolled with an approximately equal distribution (at least 40% of each sex) between male and female subjects.
On Day 1 of each period, subjects received 1 of 3 dose levels of MT1621 under fasting conditions as escalating single doses over 3 periods in Part A (Treatments A, B, and C in Periods 1, 2, and 3, respectively) and with the highest dose under fed conditions in Part B (Treatment D in Period 4). Four (4) of 14 subjects that completed Part A (Periods 1 to 3) could not complete Part B (Treatment D in Period 4) during the original confinement. These subjects were then to return to the clinical unit and continue the study to complete Part B (Treatment D in Period 4); 2 of the 4 subjects completed Part B.
Each treatment was assessed by blood and urine PK sampling pre-dose and up to 48 hours post-dose for the determination of dC and dT in plasma and urine PK, and possible future analysis of blood for PD biomarkers.
A washout period of at least 2 days without drug between each treatment administration was maintained. Fourteen subjects were enrolled in the study, and 12 subjects completed the study. Data from 14 subjects were included in the PK analysis of Periods 1, 2, and 3 and data from 12 subjects were included in the PK analysis of Period 4.
Study drug administered in Example 1 was 0.5 g dC and 0.5 g dT powders for solution and were reconstituted in juice or water.
After reconstitution in a fixed amount of water or juice, the solution was administered via measured volume to provide the amounts specified in Studies A, B, C, and D.
MT1621 was administered orally at Hour 0 on Day 1, following an overnight fast for Treatments A, B, and C and within 5 minutes of consumption of a standardized high-fat breakfast (which included eggs, bacon, and toast with butter) for Treatment D.
Blood samples for the determination of plasma dC and dT concentrations were collected on Day 1 of each period at pre-dose (0 hour), and at 0.25, 0.5, 1, 1.5, 2, 3, 4, 5, 6, 8, 12, 24, and 48 after study drug administration. In Period 4, blood was collected for the 48-hour PK sample; for Periods 1 through 3, the 48-hour PK sample was collected at the same time as the pre-dose PK sample from the next period so only 1 sample was collected for both PK time points. It should be pointed out that Periods 1-3 used sampling up to 24 hours for PK while Period 4 used the complete 48-hour profile. […]

[1] = 100*(test/reference): 133.3 mg/kg MT1621 fed vs fasted, baseline-adjusted plasma
[2] = Treatment A: single 43.3 mg/kg MT1621, fasted, baseline-adjusted plasma, arithmetic mean ± SD
[3] = Treatment B: single 86.7 mg/kg MT1621, fasted, baseline-adjusted plasma, arithmetic mean ± SD
[4] = Treatment C: single 133.3 mg/kg MT1621, fasted, baseline-adjusted plasma, arithmetic mean ± SD
[5] = Treatment D: single 133.3 mg/kg MT1621, fed (high-fat breakfast), baseline-adjusted plasma, arithmetic mean ± SD
[6] = across the 3 fasted dose levels (Treatments A, B, C), plasma

Cc1cn([C@H]2C[C@H](O)[C@@H](CO)O2)c(=O)[nH]c1=O [dT, β-D-2′-deoxythymidine]
increase in baseline adjusted AUC, fed compared to fasted (133.3 mg/kg MT1621, plasma): 74%
increase in baseline adjusted Cmax, fed compared to fasted (133.3 mg/kg MT1621, plasma): 27%
AUC0-t GMR (%) [1]: 174.38%
Cmax GMR (%) [1]: 127.39%
AUC%extrap [2]: 46.24 NC %
Kel [2]: 0.1569 NC 1/hr
AUC%extrap [3]: 6.481 ± 5.9830%
Kel [3]: 0.0932 ± 0.07205 h⁻¹
AUC%extrap [4]: 1.954 ± 1.6169%
Kel [4]: 0.09785 ± 0.06094 h⁻¹
AUC%extrap [5]: 1.244 ± 1.1349%
Kel [5]: 0.2445 ± 0.2863 h⁻¹
dose proportionality of AUC (total extent of exposure, AUC0-t and AUC0-inf) [6]: neither AUC nor Cmax was dose proportional
dose proportionality of Cmax [6]: neither AUC nor Cmax was dose proportional
Vd/F (both sexes, human, oral, Treatment D: single 133.3 mg/kg MT1621, fed (high-fat breakfast), baseline-adjusted plasma, arithmetic mean ± SD, read-out: Vz/F): 6220 ± 2880 L/kg
half-life (both sexes, human, plasma, oral, 43.3 mg/kg, Treatment A: single 43.3 mg/kg MT1621, fasted, baseline-adjusted plasma, arithmetic mean ± SD): 4.42 h
AUC(0-inf) (both sexes, human, plasma, oral, 43.3 mg/kg, Treatment A: single 43.3 mg/kg MT1621, fasted, baseline-adjusted plasma, geometric mean (geometric CV %)): 3.56 ng·h/mL
AUC(0-t) (both sexes, human, plasma, oral, 43.3 mg/kg, Treatment A: single 43.3 mg/kg MT1621, fasted, baseline-adjusted plasma, geometric mean (geometric CV %), read-out: AUC0-4): 8.78 ng·h/mL
AUC(0-t) (both sexes, human, plasma, oral, 43.3 mg/kg, Treatment A: single 43.3 mg/kg MT1621, fasted, baseline-adjusted plasma, geometric mean (geometric CV %), read-out: AUC0-6): 11.1 ng·h/mL
AUC(0-t) (both sexes, human, plasma, oral, 43.3 mg/kg, Treatment A: single 43.3 mg/kg MT1621, fasted, baseline-adjusted plasma, geometric mean (geometric CV %), read-out: AUC0-48): 18.2 ng·h/mL
AUC(0-t) (both sexes, human, plasma, oral, 43.3 mg/kg, Treatment A: single 43.3 mg/kg MT1621, fasted, baseline-adjusted plasma, geometric mean (geometric CV %), read-out: AUC0-t): 12.6 ng·h/mL
Cmax (both sexes, human, plasma, oral, 43.3 mg/kg, Treatment A: single 43.3 mg/kg MT1621, fasted, baseline-adjusted plasma, geometric mean (geometric CV %), read-out: Cmax): 6.19 ng/mL
Tmax (both sexes, human, plasma, oral, 43.3 mg/kg, Treatment A: single 43.3 mg/kg MT1621, fasted, baseline-adjusted plasma, median (minimum, maximum), read-out: Tmax): 0.516 h
half-life (both sexes, human, plasma, oral, 86.7 mg/kg, Treatment B: single 86.7 mg/kg MT1621, fasted, baseline-adjusted plasma, arithmetic mean ± SD): 10.4 ± 5.95 h
AUC(0-inf) (both sexes, human, plasma, oral, 86.7 mg/kg, Treatment B: single 86.7 mg/kg MT1621, fasted, baseline-adjusted plasma, geometric mean (geometric CV %)): 67.2 ng·h/mL
AUC(0-t) (both sexes, human, plasma, oral, 86.7 mg/kg, Treatment B: single 86.7 mg/kg MT1621, fasted, baseline-adjusted plasma, geometric mean (geometric CV %), read-out: AUC0-4): 21 ng·h/mL
AUC(0-t) (both sexes, human, plasma, oral, 86.7 mg/kg, Treatment B: single 86.7 mg/kg MT1621, fasted, baseline-adjusted plasma, geometric mean (geometric CV %), read-out: AUC0-6): 23.1 ng·h/mL
AUC(0-t) (both sexes, human, plasma, oral, 86.7 mg/kg, Treatment B: single 86.7 mg/kg MT1621, fasted, baseline-adjusted plasma, geometric mean (geometric CV %), read-out: AUC0-48): 82.1 ng·h/mL
AUC(0-t) (both sexes, human, plasma, oral, 86.7 mg/kg, Treatment B: single 86.7 mg/kg MT1621, fasted, baseline-adjusted plasma, geometric mean (geometric CV %), read-out: AUC0-t): 31.7 ng·h/mL
Cmax (both sexes, human, plasma, oral, 86.7 mg/kg, Treatment B: single 86.7 mg/kg MT1621, fasted, baseline-adjusted plasma, geometric mean (geometric CV %), read-out: Cmax): 14.2 ng/mL
Tmax (both sexes, human, plasma, oral, 86.7 mg/kg, Treatment B: single 86.7 mg/kg MT1621, fasted, baseline-adjusted plasma, median (minimum, maximum), read-out: Tmax): 1.06 h
AUC(0-t) (both sexes, human, plasma, oral, 133.3 mg/kg, Treatment C, fasted, baseline-adjusted plasma, ANOVA on ln-transformed data, read-out: AUC0-t Geometric LSM, 133.3 mg/kg MT1621, Fasted (Reference)): 91.2 ng·h/mL
Cmax (both sexes, human, plasma, oral, 133.3 mg/kg, Treatment C, fasted, baseline-adjusted plasma, ANOVA on ln-transformed data, read-out: Cmax Geometric LSM, 133.3 mg/kg MT1621, Fasted (Reference)): 31.5 ng/mL
half-life (both sexes, human, plasma, oral, 133.3 mg/kg, Treatment C: single 133.3 mg/kg MT1621, fasted, baseline-adjusted plasma, arithmetic mean ± SD): 8.76 ± 4.04 h
AUC(0-inf) (both sexes, human, plasma, oral, 133.3 mg/kg, Treatment C: single 133.3 mg/kg MT1621, fasted, baseline-adjusted plasma, geometric mean (geometric CV %)): 144 ng·h/mL
AUC(0-t) (both sexes, human, plasma, oral, 133.3 mg/kg, Treatment C: single 133.3 mg/kg MT1621, fasted, baseline-adjusted plasma, geometric mean (geometric CV %), read-out: AUC0-4): 53.1 ng·h/mL
AUC(0-t) (both sexes, human, plasma, oral, 133.3 mg/kg, Treatment C: single 133.3 mg/kg MT1621, fasted, baseline-adjusted plasma, geometric mean (geometric CV %), read-out: AUC0-6): 60.6 ng·h/mL
AUC(0-t) (both sexes, human, plasma, oral, 133.3 mg/kg, Treatment C: single 133.3 mg/kg MT1621, fasted, baseline-adjusted plasma, geometric mean (geometric CV %), read-out: AUC0-48): 114 ng·h/mL
AUC(0-t) (both sexes, human, plasma, oral, 133.3 mg/kg, Treatment C: single 133.3 mg/kg MT1621, fasted, baseline-adjusted plasma, geometric mean (geometric CV %), read-out: AUC0-t): 91.2 ng·h/mL
Cmax (both sexes, human, plasma, oral, 133.3 mg/kg, Treatment C: single 133.3 mg/kg MT1621, fasted, baseline-adjusted plasma, geometric mean (geometric CV %), read-out: Cmax): 31.5 ng/mL
Tmax (both sexes, human, plasma, oral, 133.3 mg/kg, Treatment C: single 133.3 mg/kg MT1621, fasted, baseline-adjusted plasma, median (minimum, maximum), read-out: Tmax): 1.25 h
AUC(0-t) (both sexes, human, plasma, oral, 133.3 mg/kg, Treatment D, fed, baseline-adjusted plasma, ANOVA on ln-transformed data, read-out: AUC0-t Geometric LSM, 133.3 mg/kg MT1621, Fed (Test)): 159 ng·h/mL
Cmax (both sexes, human, plasma, oral, 133.3 mg/kg, Treatment D, fed, baseline-adjusted plasma, ANOVA on ln-transformed data, read-out: Cmax Geometric LSM, 133.3 mg/kg MT1621, Fed (Test)): 40.1 ng/mL
half-life (both sexes, human, plasma, oral, 133.3 mg/kg, Treatment D: single 133.3 mg/kg MT1621, fed (high-fat breakfast), baseline-adjusted plasma, arithmetic mean ± SD): 5.35 ± 3.11 h
AUC(0-inf) (both sexes, human, plasma, oral, 133.3 mg/kg, Treatment D: single 133.3 mg/kg MT1621, fed (high-fat breakfast), baseline-adjusted plasma, geometric mean (geometric CV %)): 149 ng·h/mL
AUC(0-t) (both sexes, human, plasma, oral, 133.3 mg/kg, Treatment D: single 133.3 mg/kg MT1621, fed (high-fat breakfast), baseline-adjusted plasma, geometric mean (geometric CV %), read-out: AUC0-4): 74.4 ng·h/mL
AUC(0-t) (both sexes, human, plasma, oral, 133.3 mg/kg, Treatment D: single 133.3 mg/kg MT1621, fed (high-fat breakfast), baseline-adjusted plasma, geometric mean (geometric CV %), read-out: AUC0-6): 119 ng·h/mL
AUC(0-t) (both sexes, human, plasma, oral, 133.3 mg/kg, Treatment D: single 133.3 mg/kg MT1621, fed (high-fat breakfast), baseline-adjusted plasma, geometric mean (geometric CV %), read-out: AUC0-48): 141 ng·h/mL
AUC(0-t) (both sexes, human, plasma, oral, 133.3 mg/kg, Treatment D: single 133.3 mg/kg MT1621, fed (high-fat breakfast), baseline-adjusted plasma, geometric mean (geometric CV %), read-out: AUC0-t): 159 ng·h/mL
Cmax (both sexes, human, plasma, oral, 133.3 mg/kg, Treatment D: single 133.3 mg/kg MT1621, fed (high-fat breakfast), baseline-adjusted plasma, geometric mean (geometric CV %), read-out: Cmax): 40.1 ng/mL
Tmax (both sexes, human, plasma, oral, 133.3 mg/kg, Treatment D: single 133.3 mg/kg MT1621, fed (high-fat breakfast), baseline-adjusted plasma, median (minimum, maximum), read-out: Tmax): 4 h
Tmax (both sexes, human, plasma, oral, under fasted conditions, read-out: median Tmax): 1 h
Tmax (both sexes, human, plasma, oral, under fed conditions, read-out: median Tmax): 3 h
plasma exposure compared to endogenous (baseline) concentrations (following MT1621, all 3 dose levels): consistently higher
